Converted amounts (≈) assume the structure as drawn. Read-outs that look alike come from different tables or passages of the source. Residues, ends and D or L forms follow the SMILES beside them. No end group written: not given here.
Columns and labels:
Settings in all cases: 10 mM phosphate buffer, 99.9% killing
Staphylococcus aureus = experiment: Bacterial lysis assay (broth dilution), minimal bactericidal concentration; type: cell-based
Description: (§1) The assays for growth inhibition of a microbial target can be used to derive a minimum bactericidal concentration (MBC) value for the peptide, i.e., the concentration of peptide required to kill 99.9% of the microbial sample being tested. This value is well known to those in the art as representative of the effectiveness of a particular antimicrobial agent (e.g., an antibiotic) against a particular organism or group of organisms. In assays to detect the MBC of a peptide, growth inhibition of a bacterial population also can be measured with reference to the number of colony forming units (cfu) after exposure to a peptide relative to a control experiment without a peptide.
(§2) Bacterial lysis assay. Bacterial lysis assays were conducted in a manner similar to that described previously (Lehrer, R. I., M. E. Selsted, D. Szklarek, and F. J. 1983. Infect. Immun. 42: 10-4, 1983; Miller, M. A., R. F. Garry, J. M. Jaynes, and R. C. Montelaro, AIDS Res Hum Retroviruses 7: 511-519, 1991). Bacterial suspensions were cultured in Luria-Bertani Broth to mid-log growth phase and washed by two cycles of centrifugation and suspension in 10 mM phosphate buffer. The Abs600 of the suspension was adjusted with 10 mM phosphate buffer such that, upon dilution, 5-10x10^5 cfu/mL would be treated in the assay. Bacteria were incubated for 1h with two-fold dilutions of peptides (100µM to 100 nM) in 96-well plates using 10 mM phosphate buffer, pH 7.2, as a diluent. Ten-fold dilutions of bacteria were performed to 1:1000; a 100µl aliquot from each condition was spread on the surface of tryptic soy agar plates (Difco, Detroit, Mich.) which were incubated overnight. Colonies of surviving bacteria (cfu, colony-forming units) were counted and compared to untreated controls to determine the amount of peptide-induced killing under each condition. Log killing is defined as the log of the ratio of cfu present before and after treatment with peptide. The minimal bactericidal concentration, MBC, is the peptide concentration at which 99.9% (three log) killing is achieved (Pearson et al., Antimicrob. Agents Chemother. 18: 699-708, 1980).
(§3) Results. Representative gram positive (S. aureus) and gram negative (P. aeruginosa) clinical isolates were used as the index bacteria to survey the peptides described in this invention.
(§4) A limitation of many host-derived antimicrobial peptides is their decreased activity at physiologic (150 mM) NaCl concentration. See Friedrich et al., Antimicrobial Agents and Chemotherapy 43:1542-1548. The activity of eLLPs and LBUs of this invention were compared to an expanded list of clinical bacterial isolates. These are summarized in Table 2 by comparing their MBCs in phosphate buffer alone (low salt) and phosphate buffer containing 150 mM NaCl (physiologic conditions). Inspection of this table would lead one skilled in the art to conclude that the activity of eLLPs and LBUs compare favorably to the host derived antimicrobial peptides as it relates to the spectrum and potency of antimicrobial activity.

Psuedomonas aeruginosa = experiment: as above; type: cell-based, Pseudomonas aeruginosa
Description: as §1, §2, §3, §4

[1] = test system: Methicillin Resistant S. aureus; type: cell-based
Description: as §1, §2, §4

Row | Compound | MBC (Staphylococcus aureus; 0 mM NaCl) | MBC (Staphylococcus aureus; 150 mM NaCl) | MBC (Psuedomonas aeruginosa; 0 mM NaCl) [µM] | MBC (Psuedomonas aeruginosa; 150 mM NaCl) [µM] | MBC ([1]; 0 mM NaCl) | MBC ([1]; 150 mM NaCl)
1 | CC(C)[C@H](NC(=O)[C@H](CCCNC(=N)N)NC(=O)[C@H](CCCNC(=N)N)NC(=O)[C@@H](NC(=O)[C@@H](NC(=O)[C@H](CCCNC(=N)N)NC(=O)[C@@H](N)CCCNC(=N)N)C(C)C)C(C)C)C(=O)N[C@@H](CCCNC(=N)N)C(=O)N[C@@H](CCCNC(=N)N)C(=O)N[C@H](C(=O)N[C@H](C(=O)N[C@@H](CCCNC(=N)N)C(=O)N[C@@H](CCCNC(=N)N)C(=O)N[C@H](C(=O)N[C@H](C(=O)N[C@@H](CCCNC(=N)N)C(=O)N[C@H](C(=O)N[C@H](C(=O)N[C@@H](CCCNC(=N)N)C(=O)N[C@@H](CCCNC(=N)N)C(=O)N[C@H](C(=O)N[C@H](C(=O)N[C@@H](CCCNC(=N)N)C(=O)N[C@@H](CCCNC(=N)N)C(=O)O)C(C)C)C(C)C)C(C)C)C(C)C)C(C)C)C(C)C)C(C)C)C(C)C [LBU-2, RRVVRRVRRV VRRVV RVVRR VVRR] (H-RRVVRRVRRVVRRVVRVVRRVVRR-OH) | 1500 nM (≈ 4.71 µg/mL) | >100,000 nanomolar | 1.5 (≈ 4.71 µg/mL) | 0.8 (≈ 2.51 µg/mL) |  | 
2 | CC(C)[C@H](N)C(=O)N[C@@H](CCCNC(=N)N)C(=O)N[C@@H](CCCNC(=N)N)C(=O)N[C@H](C(=O)N[C@H](C(=O)N[C@@H](CCCNC(=N)N)C(=O)N[C@@H](CCCNC(=N)N)C(=O)N[C@H](C(=O)N[C@H](C(=O)N[C@@H](CCCNC(=N)N)C(=O)N[C@H](C(=O)N[C@H](C(=O)N[C@@H](CCCNC(=N)N)C(=O)N[C@@H](CCCNC(=N)N)C(=O)N[C@H](C(=O)N[C@H](C(=O)N[C@@H](CCCNC(=N)N)C(=O)N[C@@H](CCCNC(=N)N)C(=O)N[C@H](C(=O)N[C@@H](CCCNC(=N)N)C(=O)N[C@@H](CCCNC(=N)N)C(=O)N[C@H](C(=O)N[C@H](C(=O)N[C@@H](CCCNC(=N)N)C(=O)N[C@@H](CCCNC(=N)N)C(=O)N[C@H](C(=O)N[C@H](C(=O)N[C@@H](CCCNC(=N)N)C(=O)N[C@H](C(=O)N[C@H](C(=O)N[C@@H](CCCNC(=N)N)C(=O)N[C@@H](CCCNC(=N)N)C(=O)N[C@H](C(=O)N[C@H](C(=O)N[C@@H](CCCNC(=N)N)C(=O)N[C@@H](CCCNC(=N)N)C(=O)O)C(C)C)C(C)C)C(C)C)C(C)C)C(C)C)C(C)C)C(C)C)C(C)C)C(C)C)C(C)C)C(C)C)C(C)C)C(C)C)C(C)C)C(C)C)C(C)C)C(C)C [LBU-3, VRRVVRRVVRVVRRVVRRVRRVVRRVVRVV RRVVRR] (H-VRRVVRRVVRVVRRVVRRVRRVVRRVVRVVRRVVRR-OH) | 1500 nM (≈ 6.92 µg/mL) | 1500 nM (≈ 6.92 µg/mL) | 1.5 (≈ 6.92 µg/mL) | 0.8 (≈ 3.69 µg/mL) |  | 
3 | CC(C)[C@H](NC(=O)[C@H](Cc1c[nH]c2ccccc12)NC(=O)[C@H](CCCNC(=N)N)NC(=O)[C@H](CCCNC(=N)N)NC(=O)[C@@H](NC(=O)[C@@H](NC(=O)[C@H](CCCNC(=N)N)NC(=O)[C@@H](NC(=O)[C@@H](NC(=O)[C@@H](N)CCCNC(=N)N)C(C)C)C(C)C)C(C)C)C(C)C)C(=O)N[C@@H](CCCNC(=N)N)C(=O)N[C@@H](CCCNC(=N)N)C(=O)O [WLBU-1, RVVRV VRRWV RR] (H-RVVRVVRRWVRR-OH) | 30.000 nM (≈ 0.0491 µg/mL) | 10.000 nM (≈ 0.0164 µg/mL) | 0.4 (≈ 0.655 µg/mL) | 2.5 (≈ 4.09 µg/mL) | 50,000 nanomolar | 50,000 nanomolar
4 | CC(C)[C@H](NC(=O)[C@H](Cc1c[nH]c2ccccc12)NC(=O)[C@H](CCCNC(=N)N)NC(=O)[C@H](CCCNC(=N)N)NC(=O)[C@@H](NC(=O)[C@@H](NC(=O)[C@H](CCCNC(=N)N)NC(=O)[C@@H](NC(=O)[C@@H](NC(=O)[C@H](CCCNC(=N)N)NC(=O)[C@H](CCCNC(=N)N)NC(=O)[C@H](Cc1c[nH]c2ccccc12)NC(=O)[C@@H](NC(=O)[C@H](CCCNC(=N)N)NC(=O)[C@H](CCCNC(=N)N)NC(=O)[C@@H](NC(=O)[C@H](CCCNC(=N)N)NC(=O)[C@H](CCCNC(=N)N)NC(=O)[C@@H](NC(=O)[C@H](Cc1c[nH]c2ccccc12)NC(=O)[C@H](CCCNC(=N)N)NC(=O)[C@@H](N)CCCNC(=N)N)C(C)C)C(C)C)C(C)C)C(C)C)C(C)C)C(C)C)C(C)C)C(=O)N[C@@H](CCCNC(=N)N)C(=O)N[C@@H](CCCNC(=N)N)C(=O)O [WLBU-2, RRWVRRVRRV WRRVV RVVRR WVRR] (H-RRWVRRVRRVWRRVVRVVRRWVRR-OH) | 1000 nM (≈ 3.4 µg/mL) | 600 nM (≈ 2.04 µg/mL) | 0.2 (≈ 0.68 µg/mL) | 0.1 (≈ 0.34 µg/mL) | 200 nM (≈ 0.68 µg/mL) | 100 nM (≈ 0.34 µg/mL)
5 | CC(C)[C@H](N)C(=O)N[C@@H](CCCNC(=N)N)C(=O)N[C@@H](CCCNC(=N)N)C(=O)N[C@H](C(=O)N[C@@H](Cc1c[nH]c2ccccc12)C(=O)N[C@@H](CCCNC(=N)N)C(=O)N[C@@H](CCCNC(=N)N)C(=O)N[C@H](C(=O)N[C@H](C(=O)N[C@@H](CCCNC(=N)N)C(=O)N[C@H](C(=O)N[C@H](C(=O)N[C@@H](CCCNC(=N)N)C(=O)N[C@@H](CCCNC(=N)N)C(=O)N[C@@H](Cc1c[nH]c2ccccc12)C(=O)N[C@H](C(=O)N[C@@H](CCCNC(=N)N)C(=O)N[C@@H](CCCNC(=N)N)C(=O)N[C@H](C(=O)N[C@@H](CCCNC(=N)N)C(=O)N[C@@H](CCCNC(=N)N)C(=O)N[C@H](C(=O)N[C@@H](Cc1c[nH]c2ccccc12)C(=O)N[C@@H](CCCNC(=N)N)C(=O)N[C@@H](CCCNC(=N)N)C(=O)N[C@H](C(=O)N[C@H](C(=O)N[C@@H](CCCNC(=N)N)C(=O)N[C@H](C(=O)N[C@H](C(=O)N[C@@H](CCCNC(=N)N)C(=O)N[C@@H](CCCNC(=N)N)C(=O)N[C@@H](Cc1c[nH]c2ccccc12)C(=O)N[C@H](C(=O)N[C@@H](CCCNC(=N)N)C(=O)N[C@@H](CCCNC(=N)N)C(=O)O)C(C)C)C(C)C)C(C)C)C(C)C)C(C)C)C(C)C)C(C)C)C(C)C)C(C)C)C(C)C)C(C)C)C(C)C)C(C)C [WLBU-3, VRRVWRRVVRVVRRWVRRVRRVWRRVVRVVRRWVRR] (H-VRRVWRRVVRVVRRWVRRVRRVWRRVVRVVRRWVRR-OH) | 3,000 nanomolar | 600 nM (≈ 2.98 µg/mL) | 1.5 (≈ 7.44 µg/mL) | 0.8 (≈ 3.97 µg/mL) | 400 nM (≈ 1.98 µg/mL) | 100 nM (≈ 0.496 µg/mL)
6 | RRVVRRVRRVVRRVVRVVRRVVRRVRRVVRRVVRVVRRVVRR [LBU-3.5, RRVVRRVRRVVRRVVRVVRRVVRRVRRVVRRVVRVVRRVVRR] | 1000 nM | 600 nM | 0.4 | 0.4 | 1500 nM | 200 nM
7 | RVVRVVRRVVRRVRRVVRRVVRVVRRVVRRVRRVVRRVVRVVRRVVRR [LBU-4, RVVRVVRRVVRRVRRVVRRVVRVVRRVVRRVRRVVRRVVRVVRRVVRR] | 800 nM | 800 nM | 0.8 | 0.4 |  | 
8 | RVVRVVRRWVRRVRRVWRRVVRVVRRWVRRVRRVWRRVVRVVRRWRVV [WLBU-4, RVVRVVRRWVRRVRRVWRRVVRVVRRRVVRVVRRWRVV RWVRR VRRVW] | 3,000 nanomolar | 600 nM | 1.5 | 0.4 | 1500 nM | 200 nM

— EP1368050B1, “VIRUS DERIVED ANTIMICROBIAL PEPTIDES” (priority 2001, dated 2008)
